Activity calls are given as the source filed them. The rule behind the calls is not given here.
Legend:
BV-2 [1] = assay: Antiinflammatory activity in mouse BV2 cells assessed as reduction in LPS-induced nitric oxide production by griess assay; format: functional, cell-based
BV-2 [2] = assay: Cytotoxicity against mouse BV2 cells assessed as reduction in cell viability; format: cell-based
BV-2 [3] = assay: Antiinflammatory activity in mouse BV2 cells assessed as reduction in LPS-induced iNOS expression at 10 to 100 uM preincubated for 30 mins followed by LPS stimulation and measured after 24 hrs by Western blot analysis; format: functional, cell-based
BV-2 [4] = assay: Antiinflammatory activity in mouse BV2 cells assessed as reduction in LPS-induced COX2 expression at 10 to 100 uM preincubated for 30 mins followed by LPS stimulation and measured after 24 hrs by Western blot analysis; format: functional, cell-based

COC(=O)C/C(C=O)=C\C[C@@]1(C)[C@H](C)C[C@H](OC(C)=O)[C@]2(COC(C)=O)[C@@H]1[C@H](O)CC[C@]21CO1
IC50 (BV-2 [1]): > 100 µM
Activity (BV-2 [2]): Non-Toxic

CC[C@H](C)C(=O)O[C@@H](C[C@@]1(C)[C@H](C)C[C@H](O)[C@]2(C)[C@@H]1CCC[C@H]2C(=O)OC)C1=CC(=O)OC1
IC50 (BV-2 [1]): 45 µM
Activity (BV-2 [2]): Non-Toxic

C/C=C(\C)C(=O)OC[C@@]12[C@H](CCC[C@]1(O)CCl)[C@@](C)(CCC1=CC(=O)OC1)[C@H](C)C[C@@H]2O
IC50 (BV-2 [1]): 20.2 µM
Activity (BV-2 [2]): Non-Toxic
Activity (BV-2 [3]): Active
Activity (BV-2 [4]): Active

C/C=C(\C)C(=O)O[C@@H](C[C@@]1(C)[C@H](C)C[C@H](O)[C@]2(C)[C@@H]1CCC[C@H]2C(=O)OC)C1=CC(=O)OC1
IC50 (BV-2 [1]): 25.8 µM
Activity (BV-2 [2]): Non-Toxic
Activity (BV-2 [3]): Active
Activity (BV-2 [4]): Active

CSC(=N)N
IC50 (BV-2 [1]): 2.4 µM

From ChEMBL document CHEMBL4610096, “Anti-inflammatory neo-Clerodane Diterpenoids from Ajuga pantantha” (J Nat Prod, 2020)
